The record followed here is patent publication US20240270758A1, “PYRIDINO-OR PYRIMIDO-CYCLIC COMPOUND, PREPARATION METHOD THEREFOR AND MEDICAL USE THEREOF” (Genfleet Therapeutics (Shanghai) Inc., priority 2021, published 2024).

The structures appear in SMILES notation.

In the first experiment the test system is p-ERK in AGS cells (KRAS^G12D mutation). Nature of the experiment: Cell p-ERK detection assay. The following applies: 3 h incubation, HTRF. In kind it is cell-based, human. The protocol: AGS was purchased from ATCC; Cat. NO.: CRL-1739; F12K was purchased from Gibco; Cat. NO.: 21127-022; FBS was purchased from Gibco; Cat. NO.: 10099-141C; Trypsin (containing EDTA) was purchased from Gibco; Cat. NO.: 25200-072; DMSO was purchased from VWRAMRESCO; Cat. NO.: 0231-500ML; 96-well cell culture plate was purchased from Corning; Cat. NO.: 3599; An white background opaque 96-well plate was purchased from Cisbio; Cat. NO.: 66PL96025; Advance ERK phospho-T202/Y204 kit was purchased from Cisbio; Cat. NO.: 64AERPEH; Cell Counters were purchased from CHEMOMETEC; Model NO.: NC-200; microplate reader was purchased from PerkinElmer; Model NO.: Envison.
AGS is an endogenous human gastric adenocarcinoma cell line containing KRAS^G12D mutation, cultured in F12K+10% FBS medium. On the first day of the experiment, cells in the logarithmic growth phase were taken, digested with trypsin (containing EDTA), collected, and counted, and approximately 20,000 cells/well were inoculated in 96-well cell culture plates and cultured overnight in a 5% CO2 incubator. A 1000×3.16-fold gradient concentration stock of the compound was prepared using DMSO, diluted 200-fold into a 5× compound stock using the medium described above, and a 5× compound stock was added to each cell culture well the day after cell inoculating at a final concentration of 1× and a DMSO content of 0.1%. DMSO was used as an experimental control. After the compound was added and the incubation was continued for 3 h, the medium in the culture wells was removed, […] of cell lysis solution (from Advance ERK phospho-T202/Y204 kit, the same below) was added to each well, mixed well and incubated for 30 min, then […] of the mixed solution was transferred to a white background opaque 96-well plate, and another well was taken as a blank well with adding […] of cell lysis solution. After the transfer, […] of p-ERK HTRF antibody mixed solution (from Advance ERK phospho-T202/Y204 kit) was added to each well, after incubation for 4 h, HTRF fluorescence value (RLU) was read by a microplate reader, and p-ERK level inhibition ratio of the compound was calculated IR (%)=(RLU control-RLU compound)/(RLU control-RLU blank)×100%, compound concentration and corresponding cell p-ERK level inhibition ratio were fitted using Prism 8 four-parameter method, and IC50 value was calculated.
For orientation: IC50 means the concentration at which inhibition is half-maximal. Read a low IC50 as higher potency. Regarding `C#Cc1cc(F)cc2cccc(-c3ncc4c(N5CC6CCC(C5)N6)nc(OCC56CC(=C)CN5CC(=C)C6)nc4c3F)c12` [Example Z198], the IC50 is 89.7 nM.
Still for that read-out and setting: the result for `C#Cc1cccc2cc(O)cc(-c3ncc4c(N5C[C@H]6CC[C@@H](C5)[C@H]6O)nc(OC[C@@]56CCCN5C[C@H](F)C6)nc4c3F)c12` [Example Z205-2, (1R, 5S, 8S)-3-(7-(8-ethynyl-3-hydroxynaphthalen-1-yl)-8-fluoro-2-(((2R,7aS)-2-fluorotetrahydro-1H-pyrrolizin-7a(5H)-yl)methoxy)pyrido[4,3-d]pyrimidin-4-yl)-3-azabicyclo[3.2.1]octan-8-ol] reads 206 nM; that for `C#Cc1cccc2cc(O)cc(-c3ncc4c(N5CC6CCC(C6)C5)nc(OC[C@@]56CCCN5C[C@H](F)C6)nc4c3F)c12` [Example Z192, 4-(4-((1R,5S)-3-azabicyclo[3.2.1]octan-3-yl)-8-fluoro-2-(((2R,7aS)-2-fluorotetrahydro-1H-pyrrolin-7a(5H)-yl)methoxy)pyrido[4,3-d]pyrimidin-7-yl)-5-ethynylnaphthalen-2-ol], 93.5 nM; that for `C#Cc1cccc2c(N)ccc(-c3ncc4c(N5CC6CCC(C5)N6)nc(OCC56CC(=C)CN5CC(=C)C6)nc4c3F)c12` [Example Z209], 464 nM.
Same read-out and setting: the result for `C#Cc1cccc2cc(O)cc(-c3ncc4c(N5C[C@H]6CC[C@@H](C5)[C@@H]6O)nc(OC[C@@]56CCCN5C[C@H](F)C6)nc4c3F)c12` [Example Z205-1, (1R,5S,8R)-3-(7-(8-ethynyl-3-hydroxynaphthalen-1-yl)-8-fluoro-2-(((2R,7aS)-2-fluorotetrahydro-1H-pyrrolizin-7a(5H)-yl)methoxy)pyrido[4,3-d]pyrimidin-4-yl)-3-azabicyclo[3.2.1]octan-8-ol] reads 612 nM.

Still in this experiment, the particulars now being: Homo sapiens, AGS, 3 h, 3 h incubation, HTRF.
Regarding `C#Cc1cccc2cc(O)cc(-c3cc4nc(OCC56CCCN5CC(=C)C6)nc(N5CC6CCC(C5)N6)c4cn3)c12` (stereo not shown) [Example Z191, 4-(4-(3,8-diazabicyclo[3.2.1]octan-3-yl)-2-((2-methylenetetrahydro-1H-pyrrolizin-7a(5H)-yl)methoxy)pyrido[4,3-d]pyrimidin-7-yl)-5-ethynylnaphthalen-2-ol], the half-maximal inhibitory concentration (IC50) was found to be 612 nM. This lies in the sub-micromolar range.
`C#Cc1cccc2cc(O)cc(-c3ncc4c(N5C[C@H]6CC[C@@H](C5)N6)nc(OCC56CC(=C)CN5[C@@H]5C[C@@H]5C6)nc4c3F)c12` (stereo partly drawn) [Example Z26, 4-(4-((1R,5S)-3,8-diazabicyclo[3.2.1]octan-3-yl)-8-fluoro-2-(((1aR,6aR)-4-methylenehexahydrocyclopropa[b]pyrrolizin-5a(3H)-yl)methoxy)pyrido[4,3-d]pyrimidin-7-yl)-5-ethynylnaphthalen-2-ol] gave an IC50 of 2.76 nM.
Compound `C#Cc1cccc2c(F)c(O)cc(-c3ncc4c(N5CC6CCC(C5)N6)nc(OCC56CC(=C)CN5CC(=C)C6)nc4c3F)c12` [Example Z203, 4-(4-(3,8-diazabicyclo[3.2.1]octan-3-yl)-2-((2,6-dimethylenetetrahydro-1H-pyrrolizin-7a(5H)-yl)methoxy)-8-fluoropyrido[4,3-d]pyrimidin-7-yl)-5-ethynyl-1-fluoronaphthalen-2-ol] came in with an IC50 of 25.6 nM.
Take `C#Cc1cccc2cccc(-c3c(Cl)cc4c(N5C[C@H]6CC[C@@H](C5)N6)nc(OCC56CCCN5CC(=C)C6)nc4c3F)c12` (stereo partly drawn) [Example Z193, 4-((1R,5S)-3,8-diazabicyclo[3.2.1]octan-3-yl)-6-chloro-7-(8-ethynylnaphthalen-1-yl)-8-fluoro-2-((2-methylenetetrahydro-1H-pyrrolizin-7a(5H)-yl)methoxy)quinazoline]: the IC50 was found to be 623 nM.
As to `C#Cc1c(Cl)ccc2cccc(-c3ncc4c(N5C[C@H]6CC[C@@H](C5)N6)nc(OCC56CC(=C)CN5CC(=C)C6)nc4c3F)c12` [Example Z195, 4-((1R,5S)-3,8-diazabicyclo[3.2.1]octan-3-yl)-7-(7-chloro-8-ethynylnaphthalen-1-yl)-2-((2,6-dimethylenetetrahydro-1H-pyrrolizin-7a(5H)-yl)methoxy)-8-fluoropyrido[4,3-d]pyrimidine], half-maximal inhibition (IC50) was put at 162 nM. Compared with the last compound, the IC50 is about 3.8-fold lower.
